Measured values as given in US4665098A, “Pharmaceutical composition of N-(4-hydroxyphenyl) retinamide having increased bioavailability” (McNeilab, Inc., priority 1985, dated 1987).
Values belong to the compound of their own block, whether it stands above or below them.

How the values were obtained:
[1] = Stability of 4-EPR internal standard solution stored in the refrigerator; format: physicochemical; settings: six months
Experimental: Assay is by high pressure liquid chromatography using a Waters HPLC System consisting of a Model 6000A solvent delivery system with a Model 440 UV absorbance detector (365 nm filter), and either a Model U6K injector (2 ml sample loop) or a Waters Intelligent Sample Processor (WISP™). […] The column is a 10 cm×4.6 mm (i.d.) Brownlee Labs RP-18 Spheri-5 (5μ) stainless steel column equipped with a 3 cm×4.6 mm (i.d.) Brownlee Labs RP-18 (10μ) stainless steel guard column. The mobile phase is acetonitrile:water:glacial acetic acid (75:23:2, v/v/v) and is prepared in 2 liter quantities. The components of the mobile phase are mixed together, filtered through a 5 μm Millipore® filter apparatus and degassed under vacuum for one-half hour while stirring. The internal standard for the assay is N-(4-ethoxyphenyl)retinamide (4-EPR). […]
The procedure of Example 1 is followed using a 4 -EPR internal standard containing 100 μg/ml which is prepared by weighing 10.0 mg of 4-EPR into a 100 ml volumetric flask and bringing to volume with methanol. A 1/2000 dilution of this stock solution is made by transferring 0.1 ml of 100 μg/ml 4-EPR solution into a 200 ml volumetric flask and bringing to volume with methanol. The resulting solution contains 50 ng/ml of 4-EPR. […] For the assay, a 1.0 ml aliquot of plasma is transferred to a 15 ml screw-cap conical bottomed glass centrifuge tube. […]

[2] = cited from earlier work
[3] = one formulation of HPR, 5 mg/kg, rats, cited from earlier work
[4] = Bioavailability of HPR in vivo (general statements); settings: small particle size of the HPR
rats = settings: oral; cited from earlier work
mammary cancer = settings: rats, induced with N-nitroso-N-methyl urea; cited from earlier work
[5] = cited from earlier work; remark: listed apart in the source

- Stability of 4-EPR solution ([1]; 50 ng/ml in methanol): without signs of decomposition
- Stability of 4-EPR solution ([1]; 500 ng/ml in acetonitrile): without signs of decomposition
SMILES: CCOc1ccc(NC(=O)C=C(C)C=CC=C(C)C=CC2=C(C)CCCC2(C)C)cc1 [Formulation 4-EPR, N-(4-ethoxyphenyl)retinamide]

SMILES: CC1=C(/C=C/C(C)=C/C=C/C(C)=C/C(=O)Nc2ccc(O)cc2)C(C)(C)CCC1 [HPR, N-(4-Hydroxyphenyl)-all-trans-retinamide]
- Solubility in water [2]: virtually insoluble in water
- Half-life of elimination ([3]; oral): 12 h
- Oral absorption ([3]; oral): incompletely absorbed after oral administration
- Elimination [3]: eliminated slowly
- Effect of small particle size on bioavailability [4]: tends to aid bioavailability
- Toxicity relative to retinyl acetate and retinoic acid (rats): less toxic when given orally to rats then retinyl acetate and retinoic acid
- Protection against mammary cancer (mammary cancer): protects against mammary cancer in rats

SMILES: CC1=C(/C=C/C(C)=C/C=C/C(C)=C\C(=O)O)C(C)(C)CCC1 [isotretinoin]
- Effect of food intake on bioavailability [5]: affected by food intake
